# Test results published in patent US9029080B2, “Screening assay for insecticides” (priority 2008, dated 2015).
# Target: T1, ShaI/KChIP (Drosophila melanogaster, UniProt P17971)
# T1 construct: expressed in transfected cells; subclone 18-13-20
# T1 sequence (P17971 with tags, fused parts or gaps isoform P17971-1): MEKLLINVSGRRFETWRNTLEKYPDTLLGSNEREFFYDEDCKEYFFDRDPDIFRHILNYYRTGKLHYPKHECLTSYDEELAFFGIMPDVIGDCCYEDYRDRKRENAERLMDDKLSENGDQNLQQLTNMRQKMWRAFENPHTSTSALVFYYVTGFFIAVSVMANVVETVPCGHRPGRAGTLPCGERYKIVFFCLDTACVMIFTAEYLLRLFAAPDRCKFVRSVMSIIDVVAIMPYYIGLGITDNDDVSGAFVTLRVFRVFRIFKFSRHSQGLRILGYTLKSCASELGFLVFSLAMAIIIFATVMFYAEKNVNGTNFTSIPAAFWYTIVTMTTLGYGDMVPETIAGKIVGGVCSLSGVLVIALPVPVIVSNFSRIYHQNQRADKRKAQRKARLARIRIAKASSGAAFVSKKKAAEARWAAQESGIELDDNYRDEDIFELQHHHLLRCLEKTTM
# Assay: ShaI/KChIP FLIPR membrane potential assay, KCl depolarization
# Type: cell-based
# Conditions: not given
# Protocol: This assay uses two fluid additions to permit the detection of activators and antagonists in a single experiment (FIG. 17). In screening, test compounds are added in the first addition and allowed to incubate for three minutes. An activating dose of KCl is then introduced in the second addition and the fluorescence read for an additional three minutes. Controls are run for both additions.
# Cells were dispensed in a 50 μl volume containing 7,500 cells into 384-well TC clear/black assay plates (Greiner 781091) using a Multidrop 384 dispenser, incubated at ambient temperature for one hour (to reduce edge effects), and incubated overnight at 37° C./5% CO2. The cells were assayed 18-24 hours after seeding, at which point they were just approaching confluency in the wells. Culture medium was removed by flicking and tapping it out of the plate, and cells were loaded with 20 ul/well of 1× blue membrane potential dye in assay buffer for 30 minutes at 25° C. After 30 minutes the assay plate was placed into the FLIPR and run using a two-addition protocol. The first addition (5×, 5 ul) contained 2.5% DMSO in assay buffer. The pipetting height was set at 15 and the speed 20. The plate was read for three minutes after this addition. The second addition (2×, 25 ul) was either assay buffer or 120 mM isometrically-substituted KCl (i.e., KCl substituted for NaCl on a 1:1 molar basis). The height was 20 and the speed 25. Aspirate speeds were set at the lowest values and no hold or expel volumes applied. The plate was read for an additional three minutes after the second addition. The exported statistics were typically configured as stat1=average of 190-200 (the interval just before the first addition) and stat2=maximum of 260-maximum allowed. Subtract bias was set at 1 and negative control correction was OFF. Z′ statistics (an index of “screenability”, Z′>0.5=single-pass screen) were calculated using the following formula: Z′=1−((3σmax+3σmin)/(Iμmax−μminI)).
# FIG. 32: BIOMOL compounds—primary screening data. ScreenWorks screenshots showing primary FLIPR data for BIOMOL compound screening. ShaI/KChIP 20 cells were plated at 7500 cells/well in 384-well assay plates and screened the following day. Culture medium was removed by flicking the plates and the cells were loaded with 20 ul 1× membrane potential dye per well for 0.5 hours at 25° C. A two-addition protocol was used. The first addition was 5 ul 5× control or compound in 2.5% DMSO in assay buffer (0.5% [final]) read for 180 sec, and the second addition was 25 ul 2× control or 120 mM isometrically-substituted KCl in assay buffer (0-60 mM [final]) read for an additional 180 sec. Statistics were exported using the average of reads 180-200 and the maximum of reads 260-maximum allowed. Subtract bias was set at 1 and negative control correction was OFF. Control columns ½ and 23/24 are described starting on pg. 53 of this document. Inset: Screenshot of group averages for the control and compound wells highlighted in the primary data screen.
# The 3222 unique members of the BioFocus SoftFocus Ion Channel Libraries #1-4 (#SF101-04) were screened in 384-well four-point mode against ShaI/KChIP at 10 uM in a combined activator and antagonist screen. The same FLIPR protocol was used as for the BIOMOL screening and was carried out over four non-consecutive days. The following compound preparation protocol was used to prepare screening plates: Briefly, ShaI-KChIP cells were seeded in 384-well plates at 7500 cells/well in 50 ul and incubated overnight at 37° C./5% CO2. The next day, culture medium was removed, 20 ul of 1×FMP dye was added, and the cell plate was incubated at 27° C. for 30 minutes. After incubation, the cell plate was placed into the Tetra and a two-addition protocol was used. The 1st addition was 5 μl of 5× compound (50 μM) with a three minute read. […] The 2nd addition was 25 ul of 2× activation buffer (120 mM isometric KCl substitution for NaCl) and read for an additional two minutes. […]
Structure (SMILES),inhibition at 10 µM [%],inhibition at 25 µM [%]
CCOc1ccc(C2=NOC(C)C(=O)N2Cc2cccc(F)c2)cc1 (centres unmarked),52.7,–
CC1(Cc2ccc(F)c(Cl)c2)C(=O)Nc2ccc(F)cc21 (centres unmarked),52.6,–
COC(=O)c1ccc(CC2(c3cccc(F)c3)C(=O)Nc3cccc(Cl)c32)o1 (centres unmarked),41.5,–
Cc1noc(C)c1CC1(c2ccccc2)C(=O)Nc2ccc(OC(F)(F)F)cc21 (centres unmarked),50.4,–
Cc1ccc(C2(Cc3ccncc3)C(=O)Nc3ccc(OC(F)(F)F)cc32)cc1 (centres unmarked),29.1,–
Cc1nc(CC2(c3ccccc3)C(=O)Nc3ccc(OC(F)(F)F)cc32)cs1 (centres unmarked),31.4,–
COc1ccc(Cl)cc1C1=NOCC(=O)N1CCOc1ccc(F)cc1,38.7,–
CC1(Cc2ccccc2C#N)C(=O)Nc2cc(-c3ccccc3Cl)ccc21 (centres unmarked),63.3,–
Cc1nc(CC2(c3sccc3C)C(=O)Nc3ccc(OC(F)(F)F)cc32)cs1 (centres unmarked),37.8,–
O=C1Nc2cc(Cl)cc(Cl)c2C1(Cc1ccncc1)c1ccccc1 (centres unmarked),36.4,–
Cc1ccsc1C1(C)C(=O)Nc2ccccc21 (centres unmarked),56.8,–
Cc1cccnc1C1=NOC(Cc2ccccc2)C(=O)N1CCc1ccccc1 (centres unmarked),33.3,–
Cc1noc(C)c1CC1(c2ccccc2)C(=O)Nc2c(Cl)cccc21 (centres unmarked),33,–
Cc1ccc(C2(Cc3cc(C)on3)C(=O)Nc3ccc(OC(F)(F)F)cc32)cc1 (centres unmarked),40.1,–
COc1ccc(C2(Cc3ccc(C(F)(F)F)o3)C(=O)Nc3ccc(F)cc32)c(OC)c1 (centres unmarked),60.3,–
COc1ccc(Cl)cc1CC1(C)C(=O)Nc2ccc(F)cc21 (centres unmarked),32,–
Cc1nc(CC2(c3cccc(F)c3)C(=O)Nc3ccc(OC(F)(F)F)cc32)cs1 (centres unmarked),34,–
CC1ON=C(Cc2ccccc2)N(CCc2c[nH]c3ccccc23)C1=O (centres unmarked),29.6,–
Cc1c(C(=O)NCc2ccc(F)cc2)sc(=O)n1Cc1ccc(Cl)c(Cl)c1,38,–
NC(=O)c1cccc(CC2(c3ccccc3)C(=O)Nc3c(Cl)cccc32)c1 (centres unmarked),33.3,–
CC1ON=C(c2ccc(N(C)C)cc2)N(Cc2cccc(F)c2)C1=O (centres unmarked),41.3,–
Cc1ccccc1C1(Cc2cccc(C#N)c2)C(=O)Nc2ccc(F)cc21 (centres unmarked),55.5,–
O=C1Nc2cc(F)ccc2C1(Cc1ccc(C(F)(F)F)nc1)c1cccc(F)c1 (centres unmarked),42.7,–
CC1(c2ccccc2)C(=O)Nc2ccccc21 (centres unmarked),42.6,–
N#Cc1cccc(CC2(c3ccccc3)C(=O)Nc3ccc(OC(F)(F)F)cc32)c1 (centres unmarked),32.1,–
Cc1cc(CC2(c3cccc(F)c3)C(=O)Nc3cc(F)ccc32)no1 (centres unmarked),54.9,–
O=C(NCc1cccc(C(F)(F)F)c1)c1cn(CCOc2ccc(F)cc2)c(=O)s1,30.2,–

Structure (SMILES),inhibition at 10 µM [%],inhibition at 25 µM [%]
O=C1Nc2ccc(OC(F)(F)F)cc2C1(Cc1ccccn1)c1ccccc1 (centres unmarked),39.1,–
Cc1c(C(=O)NCc2ccc(C(F)(F)F)cc2)sc(=O)n1CCc1c[nH]c2ccccc12,33.3,–
CCC1(c2sccc2C)C(=O)Nc2ccccc21 (centres unmarked),52,–
Cc1nc(CC2(c3ccccc3)C(=O)Nc3cc(F)ccc32)cs1 (centres unmarked),42.5,–
NC(=O)c1cccc(CC2(c3cccc(F)c3)C(=O)Nc3cc(F)ccc32)c1 (centres unmarked),54.1,–
O=C1Nc2ccc(F)cc2C1(Cc1ccccn1)c1ccc(Cl)cc1 (centres unmarked),56.8,–
O=C(NCc1cccc(C(F)(F)F)c1)c1cn(CCc2c[nH]c3ccccc23)c(=O)s1,35,–
CC1ON=C(c2cccc(Cl)c2)N(Cc2ccc3c(c2)OCO3)C1=O (centres unmarked),31.5,–
CC1(Cc2cccc(F)c2)C(=O)Nc2ccc(OC(F)(F)F)cc21 (centres unmarked),33.5,–
CC1(Cc2cc(Cl)ccc2C(F)(F)F)C(=O)Nc2ccccc21 (centres unmarked),32.5,–
Cc1ccc(C2(Cc3csc(C)n3)C(=O)Nc3cc(F)ccc32)cc1 (centres unmarked),29.3,–
Cc1ccc(C2(Cc3csc(C)n3)C(=O)Nc3cccc(Cl)c32)cc1 (centres unmarked),46,–
Cc1ccc(C2(Cc3cccc(C(N)=O)c3)C(=O)Nc3cc(F)ccc32)cc1 (centres unmarked),57.5,–
Cc1ccsc1C1(Cc2cccc(C#N)c2)C(=O)Nc2cc(F)ccc21 (centres unmarked),58,–
Cc1cccnc1C1=NOC(Cc2ccccc2)C(=O)N1CCOc1ccc(F)cc1 (centres unmarked),36.2,–
Cc1ccc(C2(Cc3c(C)noc3C)C(=O)Nc3cc(F)ccc32)cc1 (centres unmarked),35.2,–
CC1(Cc2ccccc2C#N)C(=O)Nc2ccccc21 (centres unmarked),39.7,–
CC1ON=C(c2cccc(Cl)c2)N(Cc2cccc(C#N)c2)C1=O (centres unmarked),38.7,–
CC1ON=C(c2ccccc2F)N(Cc2cccc(F)c2)C1=O (centres unmarked),30.2,–
COc1ccc2c(c1)C(C)(Cc1ccc(Cl)s1)C(=O)N2 (centres unmarked),38.3,–
CC1=NOC(Cc2ccccc2)C(=O)N1CC(=O)c1ccccc1F (centres unmarked),41.6,–
Cc1c(C(=O)NCc2ccc([N+](=O)[O-])cc2)sc(=O)n1Cc1ccc(OC(F)(F)F)cc1,30.2,–
CC1(Cc2ccccc2C#N)C(=O)Nc2cc(OC(F)(F)F)ccc21 (centres unmarked),31.2,–
Cc1ccc(C2(Cc3ccncc3)C(=O)Nc3cc(F)ccc32)cc1 (centres unmarked),48.5,–
"NC(N)=NC(=O)c1nc(Cl)c(N)nc1N [Amiloride, 3,5-diamino-6-chloro-N-(diaminomethylene)pyrazine-2-carboxamide, reference compound]",–,80 to 100
COc1ccc(C(C)=O)cc1CC1(c2ccc3c(c2)OCO3)C(=O)Nc2ccccc21 (centres unmarked),35.2,–
Cc1nc(CC2(c3cccc(F)c3)C(=O)Nc3cc(F)ccc32)cs1 (centres unmarked),37.5,–

# Same assay, conditions: ShaI/KChIP 20 cells, three consecutive days, duplicate plates; read-out: IC50 range
row,Structure (SMILES),IC50 [µM]
1,"NC(N)=NC(=O)c1nc(Cl)c(N)nc1N [Amiloride, 3,5-diamino-6-chloro-N-(diaminomethylene)pyrazine-2-carboxamide, reference compound]",20 to 29

# Same assay, conditions: ShaI/KChIP 20 cells, three consecutive days; standard deviation 3 uM; read-out: IC50 mean
row,Structure (SMILES),IC50 [µM]
1,"NC(N)=NC(=O)c1nc(Cl)c(N)nc1N [Amiloride, 3,5-diamino-6-chloro-N-(diaminomethylene)pyrazine-2-carboxamide, reference compound]",24

# Same assay, conditions: read-out: inhibition of ShaI/KChIP response, arbitrary cutoff
row,Structure (SMILES),inhibition at 25 µM [%]
1,"O=C(O)c1ccccc1Nc1cccc(C(F)(F)F)c1 [flufenamic acid, reference compound]",≥ 55
2,"NC(N)=NC(=O)c1nc(Cl)c(N)nc1N [Amiloride, 3,5-diamino-6-chloro-N-(diaminomethylene)pyrazine-2-carboxamide, reference compound]",≥ 55

# Target: T2, octopamine receptor (OctR, CG6919 dmOa2) (Drosophila melanogaster, UniProt Q9VCZ3)
# T2 construct: expressed in transfected cells; host or cells: CHO stably expressing G-alpha-16
# Assay: OctR clone 55 FLIPR Fluo-4 calcium assay
# Type: cell-based
# Conditions: clone 55, same as published cAMP data
# Protocol: FIG. 62. Cells were plated at 10K/well in 384 well plates and allowed to incubate overnight at […]. The cells were assayed 18-24 hours after seeding. Media was removed and cells were dye loaded for 60 minutes with 2 μM Fluo-4. After 1 hour, dye was removed and 20 μl of buffer added to the plate and placed into FLIPR. The 1st addition was antagonist dose response curves and the 2nd addition was agonist dose response curves. Antagonists were challenged with 100 nM Octopamine. In addition, these compounds were tested in the parental cell line CHO-Galpha16.
# Cells were plated at 10,000 cells/well in 50 μl into 384-well black TC plates and allowed to incubate overnight at 37° C./5% CO2. The cells were assayed 18-24 hours after seeding. Culture medium was removed by flicking and cells were dye loaded for 60 minutes with 20 μl of 2 μM Fluo-4 in assay buffer plus probenecid at 25° C. After one hour dye was removed by flicking and 20 μL of assay buffer was added, wait 5 min prior to placing into the FLIPR and run using a two-addition protocol. The first addition (20 ul, 2×) was 0.5% DMSO final in assay buffer. The second addition (20 ul, 3×) was either assay buffer or 100 nM octopamine final.
row,Structure (SMILES),rank order of potency (agonists)
1,c1ccc(CC2=NCCN2)cc1 [tolazoline],naphazoline>octopamine>amitraz>clonidine>tolazoline
